# Source: patent US6979664B1, “Composition for accelerating seed germination and plant growth” (Bios Agriculture Inc., priority 1998, dated 2005)
# Values joined by “and” are separate entries in the source; they are usually repeats but may differ in a detail not shown here. Equal entries are not always repeated.
# Tests used:
# Type in all cases: in vivo
# [1] = test system: alfalfa (Medicago sativa); assay: germination of alfalfa seeds (petri plate); settings: after 24 h of treatment
# Method: Following the methods described above, the LCO most abundantly produced by R. meliloti (Nod Rm-V(C16:2, S)) was isolated and tested on alfalfa (Medicago sativa) seeds. Briefly, 10 seeds were placed in a disk of filter paper on a petri plate. The filter paper was wetted with 5 ml of the appropriate LCO solution. Data were taken at 12 hour intervals upon the radicle (an embryonic root). The number of seed with an emerged radicle were counted. Each treatment was repeated four times. The data presented in table 9 indicate a clear acceleration of growth. In this case no standard for HPLC calibration was available, so a relative dilution series was used. […] In each case, a stimulation of seed germination was observed. Of note, Rhizobium leguminosarum produces a large number of LCOs.
# potato minitubers [2] = assay: sprouting and multiple sprouting of minitubers cold-stored 0, 2 or 8 wk; settings: for Sprouting (number of sprouted tubers): GA3 500 mg l^−1 / 100% signal solution / Bromoethane 0.2 ml l^−1; for number of tubers with multiple sprouts: six tubers per treatment, doses as title
# Method: (§1) Microtubers (200–500 mg) cold-stored for 8 wk and minitubers (20–35 g) cold-stored for 0, 2, or 8 wk were used for these experiments. BE (0.2 ml l^−1) and mechanical injury (cutting in half, microwaving at full power for 10 sec) were compared with GA3 (500 mgl^−1), 100% signal solution, water soaking, and control treatments. Six microtubers or minitubers were used per treatment. Observations were made at 1, 2, 3, and 4 wk intervals and the number of sprouted tubers were counted. The evaluation period was extended because tubers with little or no cold storage treatment took longer to sprout.
# potato minitubers [3] = assay: GA3 and 100% signal solution, dormancy breaking of minitubers cold-stored 3 weeks
# Method: Minitubers (20–30 g) with 3 wk cold storage treatment were soaked for 24 h in 500 mg l^−1 GA3, 100% signal solution, or a mixture of the two. Another treatment involved successive soaking for 12 h each, in first GA3, and then signal solution. A control treatment without soaking was also performed. Eight minitubers were used per treatment which were applied at room temperature (20° C.). […] were observed after 2 wk and the number of sprouted minitubers and the number with multiple sprouts were counted.
# potato microtubers [4] = assay: dormancy breaking of potato microtubers cold-stored 8 wk; settings: GA3 500 mgl^−1
# Method: Treatments were carried out on microtubers (200–400 mg) that had been cold-stored for 8 wk to determine their effect on breaking dormancy. Signal solution was used at full strength (100%) or diluted to 20% (as for soybean), 12%, or 6% of full strength. GA3 (500 mg l^−1), water soaking, and control treatments were performed for comparison purposes. Microtuber soaking treatments lasted 24 h and then incubation occurred either in the light (40 μmol m^−2s^−1 cool-white fluorescent) or in the dark. Five microtubers were used in each treatment. Observations for sprouted microtubers were made at 1 and 2 wk.
# One hundred % signal solution was as effective as GA3 (500 mg l^−1) when evaluated after 1 wk with respect to the number of sprouted microtubers. […] One hundred % signal solution induced multiple sprouts and dark incubation favoured sprouting as compared with the light regime after 1 wk of incubation. The exact cause of dark incubation favouring 100% signal solution is not understood.
# potato microtubers [5] = assay: sprouting and multiple sprouting of microtubers cold-stored 8 wk; settings: Microtuber (CS8W); for Sprouting (number of sprouted tubers): GA3 500 mg l^−1 / 100% signal solution / Bromoethane 0.2 ml l^−1
# Method: as §1
# potato microtubers [6] = assay: sprouting of microtubers cold-stored 3 weeks, dormancy-breaking agents incl. anti-ABA; settings: evaluated at 2 weeks
# Method: Microtubers (200–600 mg) were cold-stored for 3 wk prior to the experiment. Seven microtubers were used per treatment. Treatments included 24 h soaks in anti-ABA or GA3 (500 and 250 mg l^−1, respectively) applied alone or in combination, GA3 (500 mg l^−1 in combination with 100% signal solution, and water. Bromoethane (0.2 ml l^−1) and control treatments were also performed. Observations were made after 2 wk in the dark at room temperature (20° C.). Data included number of sprouted microtubers and number of multiple sprouts. Means of sprout number were calculated only from microtubers that had sprouted.
# potato minitubers [7] = assay: harvests after 60 d from minitubers forced to break dormancy (greenhouse pots); settings: GA3 500 mg l^−1 / 100% signal solution / BE 0.2 m l^−1; for Mean number of tubers produced per replicate / Mean fresh weight: harvest after 60 d; for Mean number sprouts at planting ± SE: minitubers cold-stored 8 wk, 3 wk after treatment; for Mean fresh weight: tubers per replicate (pot)
# Method: Minitubers (20–35 g) that were cold-stored for 8 wk were given dormancy-releasing treatments including 24 h soaking in GA3 (500 mg l^−1), 100% signal solution, or water. Other treatments included BE (0.2 m l^−1), cutting in half, and the control. […] Five minitubers per treatment were individually planted into 11×12 cm plastic pots in the greenhouse. The potting mixture was 2:1 peat:perlite without fertilizer added. The pots were arranged in a complete randomized design and watered equally every alternate day. Harvest occurred after 60 d and tuber yields (number and fresh weight) were recorded.
# [8] = single agent 24 h soak (GA3 500 mgl^−1 or 100% SS), after 2 wk
SMILES,"Sprouting (number of sprouted tubers) (potato minitubers [2]; Minituber (CS2W), 1 wk)","Sprouting (number of sprouted tubers) (potato minitubers [2]; Minituber (CS2W), 2 wk)","Sprouting (number of sprouted tubers) (potato minitubers [2]; Minituber (CS2W), 3 wk)","Sprouting (number of sprouted tubers) (potato minitubers [2]; Minituber (CS2W), 4 wk)","Sprouting (number of sprouted tubers) (potato minitubers [2]; Minituber (CS8W), 1 wk)","Sprouting (number of sprouted tubers) (potato minitubers [2]; Minituber (CS8W), 2 wk)","Sprouting (number of sprouted tubers) (potato minitubers [2]; Minituber (CS8W), 3 wk)","number of tubers with multiple sprouts (potato minitubers [2]; Minituber (CS8W), 3 wk)","Sprouting (number of sprouted tubers) (potato minitubers [2]; Minituber (CS8W), 4 wk)","number of tubers with multiple sprouts (potato minitubers [2]; Minituber (CS8W), 4 wk)","Sprouting (number of sprouted tubers) (potato minitubers [2]; Minituber (NCS), 1 wk)","Sprouting (number of sprouted tubers) (potato minitubers [2]; Minituber (NCS), 2 wk)","Sprouting (number of sprouted tubers) (potato minitubers [2]; Minituber (NCS), 3 wk)","Sprouting (number of sprouted tubers) (potato minitubers [2]; Minituber (NCS), 4 wk)",Sprouting (number of sprouted tubers) (potato microtubers [5]; 1 wk),Sprouting (number of sprouted tubers) (potato microtubers [5]; 2 wk),Sprouting (number of sprouted tubers) (potato microtubers [5]; 3 wk),Sprouting (number of sprouted tubers) (potato microtubers [5]; 4 wk),Mean number of tubers produced per replicate (potato minitubers [7]),Mean number sprouts at planting ± SE (potato minitubers [7]),other results
"CCCCCC/C=C\CCCCC/C=C/C(=O)N[C@H]1[C@H](O[C@H]2[C@H](O)[C@@H](NC(C)=O)[C@H](O[C@H]3[C@H](O)[C@@H](NC(C)=O)[C@H](O[C@H]4[C@H](O)[C@@H](NC(C)=O)[C@H](O[C@H]5[C@H](O)[C@@H](NC(C)=O)C(O)O[C@@H]5COS(=O)(=O)O)O[C@@H]4CO)O[C@@H]3CO)O[C@@H]2CO)O[C@H](CO)[C@@H](O)[C@@H]1O (stereo partly drawn) [Nod Rm-V(C16:2, S)]",–,–,–,–,–,–,–,–,–,–,–,–,–,–,–,–,–,–,–,–,Percent germination ([1]; 10^−1 dilution): 26.6 ab Percent; Percent germination ([1]; 10^−2 dilution): 26.6 ab Percent; Percent germination ([1]; 10^−3 dilution): 36.6 a Percent
"C=C1C[C@]23C[C@@]1(O)CC[C@H]2[C@@]12C=C[C@H](O)[C@@](C)(C(=O)O1)[C@H]2[C@@H]3C(=O)O [GA3, gibberellic acid]",0,0/6 and 0,3/6,5/6,5/6,6/6,6/6,(6),6/6,(6),0,0/6 and 0,3/6,4/6,4/6,5/6,6/6,6/6,3.6,4.2±0.37,"number of tubers with multiple sprouts (potato minitubers [2]; Minituber (CS2W), 4 wk): (2); sprouting (potato minitubers [3]; 24 h soak, GA3 500 mg l^−1 alone or together with 100% signal solution, 2 wk): 100%; Mean number of sprouts ± SE (potato minitubers [3]; [8]): 3.37 ± 0.62; Number of minituber with multiple sprouts (potato minitubers [3]; [8]): 6/8; Number of sprouted minituber (potato minitubers [3]; [8]): 8/8; Mean number of sprouts ± SE (potato microtubers [4]; + light): 2.5 ± 0.5; Number of multiple sprouted microtubers (2 wk) (potato microtubers [4]; + light): 2/5; Number of sprouted microtubers (potato microtubers [4]; + light, 1 wk): 1/5; Number of sprouted microtubers (potato microtubers [4]; + light, 2 wk): 5/5; Mean number of sprouts ± SE (potato microtubers [4]; − light): 2.5 ± 0.3; Number of multiple sprouted microtubers (2 wk) (potato microtubers [4]; − light): 4/5; Number of sprouted microtubers (potato microtubers [4]; − light, 1 wk): 5/5; Number of sprouted microtubers (potato microtubers [4]; − light, 2 wk): 5/5; number of tubers with multiple sprouts (potato microtubers [5]; 3 wk, six tubers per treatment, doses as title): (3); Mean No. sprouts ± SE (potato microtubers [6]; GA3 500 mgl^−1 24 h): 1.71±0.28; No. sprouted microtubers (potato microtubers [6]; GA3 500 mgl^−1 24 h): 7/7; Mean fresh weight (potato minitubers [7]): 11.13 g·days"
CCBr [Bromoethane],0,0,0,2/6,3/6,4/6,6/6,(4),6/6,(4),0,0,0,0,2/6,4/6,4/6,6/6,2.0,1.8 ± 0.20,"number of tubers with multiple sprouts (potato minitubers [2]; Minituber (CS8W), 2 wk): (1); number of tubers with multiple sprouts (potato minitubers [2]; Minituber (CS8W), 2 wk, listed as BE): 1/6; Mean No. sprouts ± SE (potato microtubers [6]; Bromoethane (0.2 ml l^−1)): 1.0 ± 0; No. sprouted microtubers (potato microtubers [6]; Bromoethane (0.2 ml l^−1)): 1/7; Mean number sprouts at planting ± SE (potato minitubers [7]; listed as BE): 1.8±0.2; Mean fresh weight (potato minitubers [7]): 14.01 g·days"
